According to PubChem BioAssay AID1845196 (Molecular Pharmacology Branch, DTP, NCI, 2023):

System: 292921-168-R tumor spheroid viability
Test: Anticancer human tumor 292921-168-R patient-derived pancreatic carcinoma cell line growth inhibition
Details: spheroids with HUVEC and MSC; for IC50: curve of first compound; for viability, T/C: stronger effect = lower value
How it was run: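 Single agents and combinations were tested on spheroids built from tumor cells plus HUVEC and hMSC, at half-log dilutions starting at or near clinical Cmax, else 10 microM; final DMSO 0.25% (v/v).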
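Note: spheroids exposed to compounds for 7 days.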

Cc1sc2c(c1C)C(c1ccc(Cl)cc1)=NC(CC(=O)Nc1ccc(O)cc1)c1nnc(C)n1-2 (stereo not given) + COc1cc2c(cc1O)CCNC21CSC2c3c(OC(C)=O)c(C)c4c(c3C(COC1=O)N1C(O)C3Cc5cc(C)c(OC)c(O)c5C(C21)N3C)OCO4
IC50 (second compound 30 pM): 1.69 µM
IC50 (second compound 94.9 pM): 1.72 µM
IC50 (second compound 0.0003 µM): 0.306 µM
IC50 (second compound 0.000949 µM): < 0.00949 µM
IC50 (second compound 0.003 µM): < 0.00949 µM
viability, T/C (second compound 30 pM, first compound 0.00949 µM): 110%
viability, T/C (second compound 30 pM, first compound 0.03 µM): 120%
viability, T/C (second compound 30 pM, first compound 0.0949 µM): 118%
viability, T/C (second compound 30 pM, first compound 0.3 µM): 136%
viability, T/C (second compound 30 pM, first compound 0.949 µM): 63.5%
viability, T/C (second compound 30 pM, first compound 3 µM): 36.5%
viability, T/C (second compound 94.9 pM, first compound 0.00949 µM): 106%
viability, T/C (second compound 94.9 pM, first compound 0.03 µM): 110%
viability, T/C (second compound 94.9 pM, first compound 0.0949 µM): 118%
viability, T/C (second compound 94.9 pM, first compound 0.3 µM): 110%
viability, T/C (second compound 94.9 pM, first compound 0.949 µM): 79.2%
viability, T/C (second compound 94.9 pM, first compound 3 µM): 22.5%
viability, T/C (second compound 0.0003 µM, first compound 0.00949 µM): 53.8%
viability, T/C (second compound 0.0003 µM, first compound 0.03 µM): 52.6%
viability, T/C (second compound 0.0003 µM, first compound 0.0949 µM): 63.2%
viability, T/C (second compound 0.0003 µM, first compound 0.3 µM): 50.7%
viability, T/C (second compound 0.0003 µM, first compound 0.949 µM): 4.2%
viability, T/C (second compound 0.0003 µM, first compound 3 µM): 0.5%
viability, T/C (second compound 0.000949 µM, first compound 0.00949 µM): 1.64%
viability, T/C (second compound 0.000949 µM, first compound 0.03 µM): 1.61%
viability, T/C (second compound 0.000949 µM, first compound 0.0949 µM): 0.91%
viability, T/C (second compound 0.000949 µM, first compound 0.3 µM): 0.26%
viability, T/C (second compound 0.000949 µM, first compound 0.949 µM): 0.07%
viability, T/C (second compound 0.000949 µM, first compound 3 µM): 0.13%
viability, T/C (second compound 0.003 µM, first compound 0.00949 µM): 0.18%
viability, T/C (second compound 0.003 µM, first compound 0.03 µM): 0.16%
viability, T/C (second compound 0.003 µM, first compound 0.0949 µM): 0.16%
viability, T/C (second compound 0.003 µM, first compound 0.3 µM): 0.15%
viability, T/C (second compound 0.003 µM, first compound 0.949 µM): 0.25%
viability, T/C (second compound 0.003 µM, first compound 3 µM): 0.58%

[2H]c1nc(C)nc([2H])c1-c1cc(NC[C@@H](C)c2cccc3c(C(=O)NC)ccnc23)ncn1 + Cn1nnc2c(C(N)=O)ncn2c1=O
IC50 (second compound 1 µM): > 10 µM
IC50 (second compound 3.16 µM): > 10 µM
IC50 (second compound 10 µM): > 10 µM
IC50 (second compound 31.6 µM): > 10 µM
IC50 (second compound 100 µM): > 10 µM
viability, T/C (second compound 1 µM, first compound 0.0316 µM): 92.5%
viability, T/C (second compound 1 µM, first compound 0.1 µM): 99.7%
viability, T/C (second compound 1 µM, first compound 0.316 µM): 93.5%
viability, T/C (second compound 1 µM, first compound 1 µM): 76.6%
viability, T/C (second compound 1 µM, first compound 3.16 µM): 91.5%
viability, T/C (second compound 1 µM, first compound 10 µM): 71.8%
viability, T/C (second compound 3.16 µM, first compound 0.0316 µM): 91%
viability, T/C (second compound 3.16 µM, first compound 0.1 µM): 91.5%
viability, T/C (second compound 3.16 µM, first compound 0.316 µM): 90.6%
viability, T/C (second compound 3.16 µM, first compound 1 µM): 93.7%
viability, T/C (second compound 3.16 µM, first compound 3.16 µM): 88.7%
viability, T/C (second compound 3.16 µM, first compound 10 µM): 77.4%
viability, T/C (second compound 10 µM, first compound 0.0316 µM): 89.2%
viability, T/C (second compound 10 µM, first compound 0.1 µM): 86.4%
viability, T/C (second compound 10 µM, first compound 0.316 µM): 87.3%
viability, T/C (second compound 10 µM, first compound 1 µM): 93.7%
viability, T/C (second compound 10 µM, first compound 3.16 µM): 87.4%
viability, T/C (second compound 10 µM, first compound 10 µM): 79.6%
viability, T/C (second compound 31.6 µM, first compound 0.0316 µM): 86.4%
viability, T/C (second compound 31.6 µM, first compound 0.1 µM): 87.1%
viability, T/C (second compound 31.6 µM, first compound 0.316 µM): 86.9%
viability, T/C (second compound 31.6 µM, first compound 1 µM): 86.1%
viability, T/C (second compound 31.6 µM, first compound 3.16 µM): 89.4%
viability, T/C (second compound 31.6 µM, first compound 10 µM): 75.4%
viability, T/C (second compound 100 µM, first compound 0.0316 µM): 81.4%
viability, T/C (second compound 100 µM, first compound 0.1 µM): 81.5%
viability, T/C (second compound 100 µM, first compound 0.316 µM): 84.1%
viability, T/C (second compound 100 µM, first compound 1 µM): 81.2%
viability, T/C (second compound 100 µM, first compound 3.16 µM): 79.1%
viability, T/C (second compound 100 µM, first compound 10 µM): 70.6%
